For one data set, the system named is SKBR3 (Her2 positive). Kind of data set: Adherent cells cytotoxicity assay (CellTiter-Glo), SKBR3. Particulars: Homo sapiens, SK-BR-3, 3 to 5 days. The data set is classed as cell-based. The protocol:
(§1) Adherent cells were cultured in a T75 flask to ~50-80% confluency and harvested with trypsin into a single cell suspension. Three to five thousand (3,000-5,000) cells per well were seeded in tissue culture plates in 50 μL/well culture media and incubated at 37° C. for 18-24 hours. Serial dilutions of ADCs in culture media were then dispensed into the plates at 50 μL/well. After plating and treatment, cells were returned to the incubator for an additional 3 to 5 days. CellTiter-Glo reagent was prepared per manufacturer's instructions and added at 100 μL/well to the cultures. CellTiter-Glo allows for relative enumeration of metabolically active cells by quantifying intracellular ATP concentrations. […] Luminescence signals were detected using a standard plate reader and IC50s were calculated by logistic nonlinear regression using GraphPad Prism (GraphPad Software, San Diego, CA).
Background: ATP-based viability assays read luminescence as a measure of living cells.

For another data set, the system named is SUDHL1 (CD30 positive). Kind of data set: Suspension cells cytotoxicity assay (CellTiter-Glo), SUDHL1. Particulars: Homo sapiens, SU-DHL-1, 3-5 days. The class given is cell-based. The protocol:
Three to five thousand (3,000-5,000) cells per well were seeded in tissue culture plates in 50 μL/well culture media and incubated at 37° C. for 18-24 hours.
Serial dilutions of ADCs in culture media were then dispensed into the plates at 50 μL/well. […] CellTiter-Glo reagent was prepared per manufacturer's instructions and added at 100 μL/well to the cultures. CellTiter-Glo allows for relative enumeration of metabolically active cells by quantifying intracellular ATP concentrations. […] Luminescence signals were detected using a standard plate reader and IC50s were calculated by logistic nonlinear regression using GraphPad Prism (GraphPad Software, San Diego, CA).

The subject of data set [1] is Confluent HCC1954 (Her2 positive). Nature of the data set: Adherent cells cytotoxicity assay (CellTiter-Glo), confluent HCC1954. The class given is cell-based. Particulars: Homo sapiens.
In another data set the test system is HCC1954 (Her2 positive). Kind of data set: Adherent cells cytotoxicity assay (CellTiter-Glo), HCC1954. The class given is cell-based. Particulars: Homo sapiens, 3 to 5 days. The protocol:
as §1

For data set [2] the following is noted: male mice, previously reported; cited from earlier work.

The source of these data is patent US20260224720A1, “ECTEINASCIDIN DERIVATIVE ANTIBODY DRUG CONJUGATES” (priority 2023, published 2026).

Broadly, the IC50 is the concentration that inhibits the measured activity by half. `COc1ccc2[nH]c3c(c2c1)CCN(C(N1CCCC1)N1CCCC1)[C@]31CS[C@@H]2c3c(OC(C)=O)c(C)c4c(c3[C@H](COC1=O)N1C2[C@H]2c3c(cc(C)c(OC)c3O)C[C@@H](C1O)N2C)OCO4` (some centres unmarked) [Lurbinectedin Derivative 1]: the concentration for half-maximal inhibition (IC50) with SKBR3 (Her2 positive) is 0.542 nM; in the data set on SUDHL1 (CD30 positive), 0.625 nM; in data set [1] it was 3.7 nM; with HCC1954 (Her2 positive) it was 2.58 nM.
On to `COc1cc2c(cc1O)CCN[C@]21CS[C@@H]2c3c(OC(C)=O)c(C)c4c(c3[C@H](COC1=O)N1[C@@H]2[C@H]2c3c(cc(C)c(OC)c3O)C[C@@H]([C@@H]1O)N2C)OCO4` [trabectedin], for which the “maximum tolerated dose (MTD)” value in data set [2] is on record as 0.15 mg/kg.
